Test results: patent US20070274956A1, “Plant Germination Inhibitor And Method Of Use Thereof” (priority 2004, published 2007)

Test system: Oryzias latipes var.
Assay: Harm to fish grown in treated water
Assay type: in vivo
Conditions: 10 males and 10 females grown in aqueous solution, 1×10^−2 g/l; one week
Procedure: Forty Oryzias latipes var. (20 males and 20 females) were divided into two groups (each group: 10 males and 10 females). One group was grown in an aqueous solution of the coloring matter xylindein (1×10^−2 g/l) and the other was grown in water in the presence of wood on which mycelia of Chlorociboria aeruginosa developed and which was rotten and stained blue.

Question: Which “anomaly in the fish” value does the source give for `CCC[C@H]1Cc2c(c(O)c3c(=O)cc4oc5c6c(c(O)c7c(=O)cc8oc2c3c4c8c57)C(=O)O[C@@H](CCC)C6)C(=O)O1` [xylindein] here?
Answer: no anomaly was observed
